Measured values as given in patent US20230150970A1, “AMINOPYRIMIDINE DERIVATIVES AND THEIR USE AS ARYL HYDROCARBON RECEPTOR MODULATORS” (DONG-A ST CO., LTD., priority 2020, published 2023).

Biological target: T1, AhR (Homo sapiens, UniProt P35869)
T1 sequence (P35869 11-848): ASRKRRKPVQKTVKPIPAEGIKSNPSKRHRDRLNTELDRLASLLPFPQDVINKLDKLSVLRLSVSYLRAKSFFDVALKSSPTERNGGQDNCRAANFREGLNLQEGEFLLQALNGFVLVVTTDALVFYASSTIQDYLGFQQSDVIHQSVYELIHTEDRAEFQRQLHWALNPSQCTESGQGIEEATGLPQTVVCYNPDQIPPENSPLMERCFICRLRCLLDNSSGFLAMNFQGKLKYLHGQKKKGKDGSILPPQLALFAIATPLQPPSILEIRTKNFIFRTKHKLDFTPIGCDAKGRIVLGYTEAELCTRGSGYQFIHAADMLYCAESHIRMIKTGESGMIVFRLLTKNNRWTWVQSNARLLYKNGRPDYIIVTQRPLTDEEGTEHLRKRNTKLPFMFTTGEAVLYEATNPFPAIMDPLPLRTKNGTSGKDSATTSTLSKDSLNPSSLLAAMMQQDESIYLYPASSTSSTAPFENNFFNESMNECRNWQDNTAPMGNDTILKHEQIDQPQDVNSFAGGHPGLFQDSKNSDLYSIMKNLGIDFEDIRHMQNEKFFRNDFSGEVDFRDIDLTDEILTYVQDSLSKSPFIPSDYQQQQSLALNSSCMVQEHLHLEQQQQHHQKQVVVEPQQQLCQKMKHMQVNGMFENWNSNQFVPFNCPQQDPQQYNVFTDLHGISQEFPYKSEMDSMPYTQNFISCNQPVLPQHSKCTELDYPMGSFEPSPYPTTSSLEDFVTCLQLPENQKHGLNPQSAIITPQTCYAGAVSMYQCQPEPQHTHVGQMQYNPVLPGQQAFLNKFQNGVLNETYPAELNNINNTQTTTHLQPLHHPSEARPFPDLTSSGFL
Assay: In Vitro Assay 1: XRE-luciferase reporter assay, antagonism in human cell line (HepG2)
Details: Assay 1: AhR-Luc Human Antagonism (IC50, nM), 6 hours

[1] = values marked *: kynurenine 50 μM

Compound | IC50 [1] | IC50 (unmarked values: kynurenine 200 μM)
CN1CCC(CNc2cc(-c3ccc(Cl)cc3)nc(-c3cccnc3)n2)CC1 [Example 193, 6-(4-chlorophenyl)-N-((1-methylpiperidin-4-yl)methyl)-2-(pyridin-3-yl)pyrimidin-4-amine] | 100 to 1000 nM | –
O[C@@H]1CCN(c2cc(-c3ccc(Cl)cc3)nc(-c3cccnc3)n2)C1 [Example 194, (R)-1-(6-(4-chlorophenyl)-2-(pyridin-3-yl)pyrimidin-4-yl)pyrrolidin-3-ol] | < 10 nM | –
COC[C@@H]1CCCN1Nc1cc(-c2ccc(Cl)cc2)nc(-c2cccnc2)n1 [Example 195, (S)-6-(4-chlorophenyl)-N-(2-(methoxymethyl)pyrrolidin-1-yl)-2-(pyridin-3-yl)pyrimidin-4-amine] | > 1000 nM | –
F[C@H]1CCN(c2cc(-c3ccc(Cl)cc3)nc(-c3cccnc3)n2)C1 [Example 196, (S)-4-(4-chlorophenyl)-6-(3-fluoropyrrolidin-1-yl)-2-(pyridin-3-yl)pyrimidine] | 10 to 100 nM | –
FC(F)(F)C1CCCN1c1cc(-c2ccc(Cl)cc2)nc(-c2cccnc2)n1 (centres unmarked) [Example 197, 4-(4-chlorophenyl)-2-(pyridin-3-yl)-6-(2-(trifluoromethyl)pyrrolidin-1-yl)pyrimidine] | > 1000 nM | –
FC1(F)CCN(c2cc(-c3ccc(Cl)cc3)nc(-c3cccnc3)n2)C1 [Example 198, 4-(4-chlorophenyl)-6-(3,3-difluoropyrrolidin-1-yl)-2-(pyridin-3-yl)pyrimidine] | 10 to 100 nM | –
Clc1ccc(-c2cc(N3CCC(N4CCOCC4)C3)nc(-c3cccnc3)n2)cc1 (centres unmarked) [Example 199, 4-(1-(6-(4-chlorophenyl)-2-(pyridin-3-yl)pyrimidin-4-yl)pyrrolidin-3-yl)morpholine] | 100 to 1000 nM | –
O=C1CCC(CNc2cc(-c3ccc(Cl)cc3)nc(-c3cccnc3)n2)N1 (centres unmarked) [Example 200, 5-(((6-(4-chlorophenyl)-2-(pyridin-3-yl)pyrimidin-4-yl)amino)methyl)pyrrolidin-2-one] | > 1000 nM | –
CO[C@H]1CN(C)C[C@@H]1Nc1cc(-c2ccc(Cl)cc2)nc(-c2cccnc2)n1 [Example 202, 6-(4-chlorophenyl)-N-((3S,4S)-4-methoxy-1-methylpyrrolidin-3-yl)-2-(pyridin-3-yl)pyrimidin-4-amine] | > 1000 nM | –
Clc1ccc(-c2cc(N[C@@H]3CCCNC3)nc(-c3cccnc3)n2)cc1 [Example 203, (R)-6-(4-chlorophenyl)-N-(piperidin-3-yl)-2-(pyridin-3-yl)pyrimidin-4-amine] | 100 to 1000 nM | –
Clc1ccc(-c2cc(NC3CCCNC3)nc(-c3cccnc3)n2)cc1 (centres unmarked) [Example 204, 6-(4-chlorophenyl)-N-(piperidin-3-yl)-2-(pyridin-3-yl)pyrimidin-4-amine] | > 1000 nM | –
F[C@@H]1CNCC[C@H]1Nc1cc(-c2ccc(Cl)cc2)nc(-c2cccnc2)n1 [Example 205, 6-(4-chlorophenyl)-N-((3R,4R)-3-fluoropiperidin-4-yl)-2-(pyridin-3-yl)pyrimidin-4-amine] | > 1000 nM | –
Clc1ccc(-c2cc(NC[C@H]3CCNC3)nc(-c3cccnc3)n2)cc1 [Example 206, (S)-6-(4-chlorophenyl)-2-(pyridin-3-yl)-N-(pyrrolidin-3-ylmethyl)pyrimidin-4-amine] | > 1000 nM | –
COC(=O)[C@H]1C[C@@H](Nc2cc(-c3ccc(Cl)cc3)nc(-c3cccnc3)n2)CN1 [Example 207, methyl (2R,4R)-4-((6-(4-chlorophenyl)-2-(pyridin-3-yl)pyrimidin-4-yl)amino)pyrrolidine-2-carboxylate] | > 1000 nM | –
O=C(O)[C@H]1C[C@H](Nc2cc(-c3ccc(Cl)cc3)nc(-c3cccnc3)n2)CN1 [Example 208, (2R,4S)-4-((6-(4-chlorophenyl)-2-(pyridin-3-yl)pyrimidin-4-yl)amino)pyrrolidine-2-carboxylic acid] | > 1000 nM | –
ClC[C@@H]1CCN(c2cc(-c3ccc(Cl)cc3)nc(-c3cccnc3)n2)C1 [Example 210, (R)-4-(3-(chloromethyl)pyrrolidin-1-yl)-6-(4-chlorophenyl)-2-(pyridin-3-yl)pyrimidine] | 10 to 100 nM | –
ClC[C@H]1CCN(c2cc(-c3ccc(Cl)cc3)nc(-c3cccnc3)n2)C1 [Example 211, (S)-4-(3-(chloromethyl)pyrrolidin-1-yl)-6-(4-chlorophenyl)-2-(pyridin-3-yl)pyrimidine] | 10 to 100 nM | –
N#CC1CCN(c2cc(-c3ccc(Cl)cc3)nc(-c3cccnc3)n2)C1 (centres unmarked) [Example 212, 1-(6-(4-chlorophenyl)-2-(pyridin-3-yl)pyrimidin-4-yl)pyrrolidine-3-carbonitrile] | 10 to 100 nM | –
CC[C@@H](O)CNc1cc(-c2ccc(Cl)cc2)nc(-c2cccnc2)n1 [Example 213, (R)-1-((6-(4-chlorophenyl)-2-(pyridin-3-yl)pyrimidin-4-yl)amino)butan-2-ol] | 10 to 100 nM | –
O[C@@H]1CC[C@H](Nc2cc(-c3ccc(Cl)cc3)nc(-c3cccnc3)n2)C1 [Example 214, (1R,3S)-3-((6-(4-chlorophenyl)-2-(pyridin-3-yl)pyrimidin-4-yl)amino)cyclopentan-1-ol] | 10 to 100 nM | –
COCCN1CCN(c2cc(-c3ccc(Cl)cc3)nc(-c3cccnc3)n2)CC1 [Example 218, 4-(4-chlorophenyl)-6-(4-(2-methoxyethyl)piperazin-1-yl)-2-(pyridin-3-yl)pyrimidine] | < 10 nM | –
O[C@@H]1CCN(c2cc(-c3ccc(Cl)cc3)nc(-c3cccnc3)n2)C[C@@H]1F [Example 219, (3S,4R)-1-(6-(4-chlorophenyl)-2-(pyridin-3-yl)pyrimidin-4-yl)-3-fluoropiperidin-4-ol] | < 10 nM | –
O[C@H]1CCN(c2cc(-c3ccc(Cl)cc3)nc(-c3cccnc3)n2)C[C@H]1F [Example 220, (3R,4S)-1-(6-(4-chlorophenyl)-2-(pyridin-3-yl)pyrimidin-4-yl)-3-fluoropiperidin-4-ol] | 10 to 100 nM | –
O[C@@H]1CCN(c2cc(-c3ccc(Cl)cc3)nc(-c3cccnc3)n2)C[C@H]1F [Example 221, (3R,4R)-1-(6-(4-chlorophenyl)-2-(pyridin-3-yl)pyrimidin-4-yl)-3-fluoropiperidin-4-ol] | 10 to 100 nM | –
O[C@H]1CCN(c2cc(-c3ccc(Cl)cc3)nc(-c3cccnc3)n2)C[C@@H]1F [Example 222, (3S,4S)-1-(6-(4-chlorophenyl)-2-(pyridin-3-yl)pyrimidin-4-yl)-3-fluoropiperidin-4-ol] | < 10 nM | –
O=C(CO)N1CCN(c2cc(-c3ccc(Cl)cc3)nc(-c3cccnc3)n2)CC1 [Example 223, 1-(4-(6-(4-chlorophenyl)-2-(pyridin-3-yl)pyrimidin-4-yl)piperazin-1-yl)-2-hydroxyethan-1-one] | < 10 nM | –
OCC1CCN(c2cc(-c3ccc(OC(F)(F)F)cc3)nc(-c3cccnc3)n2)CC1 [Example 227, (1-(2-(pyridin-3-yl)-6-(4-(trifluoromethoxy)phenyl)pyrimidin-4-yl)piperidin-4-yl)methanol] | – | 10 to 100 nM
OCC1CCN(c2cc(-c3ccc(Cl)cc3)nc(-c3cccnc3)n2)CC1O (centres unmarked) [Example 233, 1-(6-(4-chlorophenyl)-2-(pyridin-3-yl)pyrimidin-4-yl)-4-(hydroxymethyl)piperidin-3-ol] | < 10 nM | –
O[C@@H]1CN(c2cc(-c3ccc(Cl)cc3)nc(-c3cccnc3)n2)C[C@H]1F [Example 234, (3R,4R)-1-(6-(4-chlorophenyl)-2-(pyridin-3-yl)pyrimidin-4-yl)-4-fluoropyrrolidin-3-ol] | < 10 nM | –
